Data reported in ChEMBL document CHEMBL1136831, “CRF ligands via Suzuki and Negishi couplings of 3-pyridyl boronic acids or halides with 2-benzyloxy-4-chloro-3-nitropyridine” (Bioorg Med Chem Lett, 2003).

These compounds were tested against Corticotropin releasing factor receptor (Rattus norvegicus, UniProt P47866+P35353) (assay: Binding affinity at Corticotropin releasing factor receptor of rat cortical homogenates.).

Row | Structure (SMILES) | Ki
1 | CCCC(C)n1c(CC)nc2c(-c3ccc(Cl)nc3C)ccnc21 (stereo not drawn) | 6.6 nM
2 | CCc1nc2c(-c3ccc(Cl)nc3C)ccnc2n1C(CC)C1CC1 (stereo not drawn) | 3.3 nM
3 | CCc1nc2c(-c3ccc(OC)nc3C(F)(F)F)ccnc2n1C(CC)C1CC1 (stereo not drawn) | 0.7 nM
4 | CCc1nc2c(-c3ccc(OC)nc3C)ncnc2n1C(C1CC1)C1CC1 | 1.8 nM
5 | CCCC(C)n1c(CC)nc2c(-c3ccc(O)nc3C(F)(F)F)ccnc21 (stereo not drawn) | 602 nM
6 | CCc1nc2c(-c3ccc(OC)nc3C)ccnc2n1C(C)CC (stereo not drawn) | 9.2 nM
7 | CCc1nc2c(-c3ccc(OC)nc3C)ccnc2n1C(C)C1CC1 (stereo not drawn) | 2 nM
8 | CCCC(C)n1c(CC)nc2c(-c3ccc(OCCO)nc3C(F)(F)F)ccnc21 (stereo not drawn) | 10.1 nM
9 | CCCC(C)n1c(CC)nc2c(-c3ccc(O)nc3C)ccnc21 (stereo not drawn) | > 10000 nM
10 | CCc1nc2c(-c3ccc(N(C)C)nc3C)ccnc2n1C(CC)C1CC1 (stereo not drawn) | 7.5 nM
11 | CCc1nc2c(-c3ccc(OC)nc3C(F)(F)F)ccnc2n1C(CC)CCOC (stereo not drawn) | 1.6 nM
12 | CCc1nc2c(-c3ccc(OC)nc3C)ccnc2n1C(C)C1CCC1 (stereo not drawn) | 2.1 nM

The remaining lines, values ahead:

Row | Ki | Structure (SMILES)
13 | 1.9 nM | CCc1nc2c(-c3ccc(OC)cc3C)ncnc2n1C(C1CC1)C1CC1
14 | 0.7 nM | CCc1nc2c(-c3ccc(OC)nc3C(F)(F)F)ccnc2n1C(C)CC (stereo not drawn)
15 | 17.1 nM | CCCC(C)n1c(CC)nc2c(-c3cnc(OC)cc3C)ccnc21 (stereo not drawn)
16 | 0.8 nM | CCc1nc2c(-c3ccc(OC)nc3C(F)(F)F)ccnc2n1C(C)C1CCC1 (stereo not drawn)
17 | 0.5 nM | CCc1nc2c(-c3ccc(OC)cc3C)ccnc2n1C(CC)C1CC1 (stereo not drawn)
18 | 1.1 nM | CCCC(C)n1c(CC)nc2c(-c3ccc(OC)nc3C)ccnc21 (stereo not drawn)
